From patent US20220387375A1, “TRPV1 ACTIVATION-MODULATING COMPLEX MIXTURES OF CANNABINOIDS AND/OR TERPENES” (GBS Global Biopharma, Inc., priority 2018, published 2022)

Experiments:
TRPV1 = target: T1, TRPV1 (Rattus norvegicus, UniProt O35433); test: Bulk calcium assay (Fluo-4) in HEK-TRPV1 overexpressing cells; format: cell-based; conditions: for mean maximal Ca^2+ signal RFU achieved 0-180 s (SD), TRPV1: bulk calcium assay; for calcium fluxes: dosing concentrations of 30-50 μM; for initiation of a calcium flux: single dose 10 μM, 1 mM external Ca2+
T1 construct: FLAG; expressed in transfected cells
T1 sequence (O35433 whole entry): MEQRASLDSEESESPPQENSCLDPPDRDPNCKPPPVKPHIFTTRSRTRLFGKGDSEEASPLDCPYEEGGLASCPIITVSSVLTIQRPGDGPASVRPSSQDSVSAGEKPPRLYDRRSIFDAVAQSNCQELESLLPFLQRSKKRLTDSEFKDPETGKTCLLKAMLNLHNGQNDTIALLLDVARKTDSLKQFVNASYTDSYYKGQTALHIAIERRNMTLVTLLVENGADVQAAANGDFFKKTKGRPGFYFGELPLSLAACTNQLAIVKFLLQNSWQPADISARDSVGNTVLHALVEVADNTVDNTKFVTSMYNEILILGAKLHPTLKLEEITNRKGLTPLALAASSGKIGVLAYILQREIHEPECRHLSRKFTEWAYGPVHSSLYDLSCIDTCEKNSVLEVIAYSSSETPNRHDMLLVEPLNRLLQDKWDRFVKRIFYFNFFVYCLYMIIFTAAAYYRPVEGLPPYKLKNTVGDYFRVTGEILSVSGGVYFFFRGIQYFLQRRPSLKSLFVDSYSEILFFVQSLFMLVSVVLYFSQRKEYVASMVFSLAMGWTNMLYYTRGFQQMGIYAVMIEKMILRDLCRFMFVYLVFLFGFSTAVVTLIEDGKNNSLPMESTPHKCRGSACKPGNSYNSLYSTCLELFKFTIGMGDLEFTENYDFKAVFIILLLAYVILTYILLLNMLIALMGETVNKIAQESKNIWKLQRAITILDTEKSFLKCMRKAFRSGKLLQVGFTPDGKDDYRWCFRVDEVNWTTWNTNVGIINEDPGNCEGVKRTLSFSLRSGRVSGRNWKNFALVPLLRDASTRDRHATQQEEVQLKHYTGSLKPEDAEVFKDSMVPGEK
Experimental: (§1) Cells were washed and incubated with 0.2 micromolar Fluo-4 for 30 minutes at 37° C. in a standard modified Ringer's solution of the following composition (in mM): NaCl 145, KCl 2.8, CsCl 10, CaCl2 10, MgCl2 2, glucose 10, Hepes·NaOH 10, pH 7.4, 330 mOsm. Cells were transferred to 96-well plates at 50,000 cells/well and stimulated as indicated. Calcium signals were acquired using a Flexstation 3 (Molecular Devices, Sunnydale, USA). Data was analyzed using SoftMax® Pro 5 (Molecular Devices). Where indicated, nomically calcium-free external conditions were achieved by the preparation of 0 mM CaCl2 Ringer solution containing 1 mM EGTA.
The cell culture system described in U.S. patent application Ser. No. 15/986,316 was used to test the TRPV1-mediated calcium response to various terpenes. The HEK293 cell line was stably transfected with the pcDNA6TR (Invitrogen, CA) plasmid (encoding the tetracycline-sensitive TREx repressor protein), and was maintained in DMEM+10% fetal bovine serum (inactivated at 55° C. for 1 h)+2 mM glutamine in humidified 5% CO2 atmosphere at 37° C. Selection pressure on the TRex 293 cells was maintained by continuous culture in 10 μg/ml Blasticidin (Sigma, St Louis, Mo.).
For production of TRex HEK293 cells with inducible expression of TRPV1, parental cells were electroporated with the rat TRPV1 cDNA in the pcDNA4TO vector and clonal cell lines were selected by limiting dilution in the presence of 400 μg/ml zeocin (Invitrogen, CA). TRPV1 expression was induced using 1 μg/ml tetracycline for 16 h at 37° C. Stable lines were screened for inducible protein expression using anti-FLAG Western blot, and inducible expression was confirmed.
Calcium responses mediated by TRPV1 were tested by calcium assay in the cell culture system. Cells were washed and incubated with 0.2 μM fluo-4 acetoxymethyl ester (“Fluo-4”) for 30 minutes at 37° C. in a standard modified Ringer's solution of the following composition (in mM): NaCl 145, KCl2.8, CsCl10, CaCl2 10, MgCl2 2, glucose 10, Hepes·NaOH 10, pH 7.4, 330 mOsm. Cells were transferred to 96-well plates at 50,000 cells/well and stimulated as indicated. The terpenes used were alpha-bisabool, alpha-pinene, myrcene, camphene, linalool, ocimene, humulene, beta-caryophyllene, beta-pinene, limonene, and nerolidol. The terpenes were diluted in DMSO and added to the wells to a final concentration of 10 μM. Vehicle (DMSO) alone was run as a negative control and subtracted from the terpene traces. Calcium signals were acquired using a Flexstation 3 (Molecular Devices, Sunnydale, USA). Data was analyzed using SoftMax® Pro 5 (Molecular Devices).
(§2) Calcium responses mediated by TRPA1, TRPM8, TRPV2, and TRPV1 were tested by calcium assay in the cell culture system. Cells were washed and incubated with 0.2 μM fluo-4 acetoxymethyl ester (“Fluo-4”) for 30 minutes at 37° C. in a standard modified Ringer's solution of the following composition (in mM): NaCl 145, KCl 2.8, CsCl 10, CaCl2 10, MgCl2 2, glucose 10, Hepes·NaOH 10, pH 7.4, 330 mOsm. Cells were transferred to 96-well plates at 50,000 cells/well and stimulated with 10 μM myrcene diluted in DMSO. Vehicle (DMSO) was used as a negative control. Vehicle traces were subtracted from the myrcene traces for each cell line.
As shown in FIGS. 16A-H, a variety of cannabinoids were capable of initiating Ca^2+ fluxes in HEK-TRPV1 overexpressing cells, except for cannabigerol and cannabinol. Comparative responses to a single dose (10 μM concentration) of a variety of cannabinoids were made in the presence of 1 mM external Ca^2+, which are population-based, or bulk Ca^2+, measurements with each trace representing averaged triplicates of 100,000 cells per sample. […] For each of the cannabinoid compounds, dose responses at the population level were performed. […] The lower limit of detectable calcium responses in this system varied from 10-100 nM (CBDV, CBGA) to 1-10 μM.

TRPM8 = target: T2, TRPM8 (Homo sapiens, UniProt Q7Z2W7); test: Bulk calcium assay (Fluo-4) in HEK cells overexpressing TRPM8; format: cell-based
T2 construct: host or cells: HEK TRex293
T2 sequence (Q7Z2W7 whole entry): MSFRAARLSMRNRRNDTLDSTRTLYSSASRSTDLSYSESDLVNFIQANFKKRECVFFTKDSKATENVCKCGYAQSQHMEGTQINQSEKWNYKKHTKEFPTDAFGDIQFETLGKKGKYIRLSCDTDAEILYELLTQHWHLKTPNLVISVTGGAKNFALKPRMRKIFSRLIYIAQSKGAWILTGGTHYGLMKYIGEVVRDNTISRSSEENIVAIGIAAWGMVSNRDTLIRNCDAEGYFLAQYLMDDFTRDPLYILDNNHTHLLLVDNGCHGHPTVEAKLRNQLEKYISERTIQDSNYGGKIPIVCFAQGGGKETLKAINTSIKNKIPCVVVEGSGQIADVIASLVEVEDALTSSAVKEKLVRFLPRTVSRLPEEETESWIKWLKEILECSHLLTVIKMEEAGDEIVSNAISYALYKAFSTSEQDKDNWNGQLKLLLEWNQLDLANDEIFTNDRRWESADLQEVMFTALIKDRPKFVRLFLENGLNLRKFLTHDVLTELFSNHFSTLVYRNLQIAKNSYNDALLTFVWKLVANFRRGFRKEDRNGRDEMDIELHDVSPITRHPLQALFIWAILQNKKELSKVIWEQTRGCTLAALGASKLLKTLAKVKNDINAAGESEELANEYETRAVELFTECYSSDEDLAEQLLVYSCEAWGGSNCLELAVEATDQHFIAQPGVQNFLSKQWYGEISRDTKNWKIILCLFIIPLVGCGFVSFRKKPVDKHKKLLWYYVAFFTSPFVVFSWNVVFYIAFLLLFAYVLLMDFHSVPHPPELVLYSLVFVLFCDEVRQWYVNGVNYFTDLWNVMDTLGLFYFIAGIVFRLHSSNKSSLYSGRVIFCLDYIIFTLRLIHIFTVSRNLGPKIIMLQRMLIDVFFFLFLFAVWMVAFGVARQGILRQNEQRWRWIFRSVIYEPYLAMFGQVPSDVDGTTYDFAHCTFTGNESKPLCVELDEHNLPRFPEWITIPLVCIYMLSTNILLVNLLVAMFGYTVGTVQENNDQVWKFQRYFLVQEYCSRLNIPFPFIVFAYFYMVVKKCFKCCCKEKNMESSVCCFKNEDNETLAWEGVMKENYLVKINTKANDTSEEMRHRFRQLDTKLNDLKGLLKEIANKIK
Experimental: HEK TRexTRPV1 were cultured in DMEM, 10% Fetal Bovine Serum, 2 mM Lglutamine, 10 μg/ml Blasticidin (Calbiochem, San Diego Calif.), 400 μg/ml Zeocin (InvivoGen, San Diego Calif.), where indicated transgene expression was induced using 1 μg/ml Tetracycline for 16-24 hrs. Unless otherwise indicated, basal expression of TRPV1 without induction was sufficient for these studies, and comparisons were made to untransfected HEK where needed. HEKTRex293 over-expressing human TRPV2, human TRPA1 and human TRPM8 were obtained from SB Drug Discovery (Glasgow, Scotland) and cultured as described above. The cannabinoids and terpenes were assayed in HEK cells that have been transfected with the TRPV1 ion channel protein. These cells are called HEK293-V1 cells.
as §1, §2
The potential for different cannabinoids to target specific TRP channels, or to co-target more than one channel type, are of potential therapeutic options for the treatment and management of pain. Comparison of the impacts of a variety of cannabinoid on overexpression systems for TRPV2, TRPM8, and TRPA1 were performed in a side-by-side fashion, under bulk calcium assays where the measurements with each trace representing averaged triplicates of 100,000 cells per sample. As shown in FIGS. 41-43 and summarized in Table 3, there are clear differences in responsiveness between cannabinoids at a single channel type than between channel types to a given cannabinoid.

SMILES: CCCCCc1cc(O)c(C/C=C(\C)CCC=C(C)C)c(O)c1 [CBG, Cannabigerol]
- mean maximal Ca^2+ signal RFU achieved 0-180 s (SD), TRPV1 (TRPV1): 0.41 (0.04) RFU
- calcium fluxes (TRPV1): small calcium fluxes
- initiation of a calcium flux (TRPV1): did not initiate a calcium flux
- mean maximal Ca^2+ signal RFU achieved 0-180 s (SD), TRM8 (TRPM8): 2.25 (0.46) RFU

SMILES: C=C(C)[C@@H]1CCC(C)=C[C@H]1c1c(O)cc(CCC)cc1O [CBDV, Cannabidivarin]
- mean maximal Ca^2+ signal RFU achieved 0-180 s (SD), TRPV1 (TRPV1): 6.51 (0.07) RFU
- mean maximal Ca^2+ signal RFU achieved 0-180 s (SD), TRM8 (TRPM8): 3.89 (0.05) RFU

SMILES: CCCCCc1cc(O)c2c(c1)OC(C)(C)c1ccc(C)cc1-2 [CBN, Cannabinol]
- mean maximal Ca^2+ signal RFU achieved 0-180 s (SD), TRPV1 (TRPV1): 0.89 (0.08) RFU
- calcium fluxes (TRPV1): small and transient calcium transient fluxes
- initiation of a calcium flux (TRPV1): did not initiate a calcium flux
- mean maximal Ca^2+ signal RFU achieved 0-180 s (SD), TRM8 (TRPM8): 0.09 (0.01) RFU

SMILES: C=C(C)[C@@H]1CCC(C)=C[C@H]1c1c(O)cc(CCCCC)cc1O [CBD, Cannabidiol]
- mean maximal Ca^2+ signal RFU achieved 0-180 s (SD), TRPV1 (TRPV1): 11.88 (0.23) RFU
- mean maximal Ca^2+ signal RFU achieved 0-180 s (SD), TRM8 (TRPM8): 1.12 (0.02) RFU
